For test [1], the target named is T1, Gonadotropin-releasing hormone receptor (Rattus norvegicus, UniProt P30969).
T1 sequence (P30969 whole entry): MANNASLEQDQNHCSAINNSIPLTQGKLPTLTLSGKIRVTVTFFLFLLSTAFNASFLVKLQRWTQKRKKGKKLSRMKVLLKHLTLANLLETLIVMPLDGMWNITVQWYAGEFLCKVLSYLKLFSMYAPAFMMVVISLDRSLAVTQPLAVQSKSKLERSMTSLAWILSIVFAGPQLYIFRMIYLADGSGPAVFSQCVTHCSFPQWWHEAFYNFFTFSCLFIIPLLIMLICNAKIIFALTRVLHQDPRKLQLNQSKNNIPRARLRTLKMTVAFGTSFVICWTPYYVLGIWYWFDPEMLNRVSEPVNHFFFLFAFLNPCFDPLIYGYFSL
The experiment in a line: Inhibition of [125I]buserelin binding to rat pituitary Gonadotropin-releasing hormone receptor, in the absence of bovine serum albumin (BSA).

Test [2] has as its target T1, Gonadotropin-releasing hormone receptor. The experiment in a line: Inhibition GnRH-stimulated luteinizing hormone (LH) release from rat pituitary cells. It is filed as functional, cell-based, Pituitary gland cell.
Test [3] has the same target. The experiment in a line: Inhibition of [125I]buserelin binding to rat pituitary Gonadotropin-releasing hormone receptor, in the presence of 0.1% bovine serum albumin.

Results on 36 compounds are retold here after ChEMBL document CHEMBL1134122, “Substituted indole-5-carboxamides and -acetamides as potent nonpeptide GnRH receptor antagonists” (Bioorg Med Chem Lett, 2001).

Regarding `Cc1cc(C)cc(-c2[nH]c3ccc(C(=O)N4CCOCC4)cc3c2CCNCCCCc2ccc(O)cc2)c1`, the IC50 in test [1] is 4 nM; in test [2], 800 nM.
The corresponding values for `Cc1cc(C)cc(-c2[nH]c3ccc(C(=O)N4CCCCC4)cc3c2CCNCCCCc2ccc(NS(C)(=O)=O)cc2)c1` are 2 nM and 220 nM.
As for `CCN(CC)C(=O)Cc1ccc2[nH]c(-c3cc(C)cc(C)c3)c(CCNCCCCc3ccc(NS(C)(=O)=O)cc3)c2c1`, the IC50 in test [1] was found to be 3 nM; in test [3] it was 0.2 nM; in test [2], 130 nM.
Take `Cc1cc(C)cc(-c2[nH]c3ccc(C(=O)NCc4ccccc4)cc3c2CCNCCCCc2ccc(O)cc2)c1`: in test [1], the IC50 is 24 nM.
Consider `Cc1cc(C)cc(-c2[nH]c3ccc(C(=O)N(C)C)cc3c2CCNCCCCc2ccc(O)cc2)c1`, for which the IC50 in test [1] came out at 5 nM; in test [2] it was 820 nM.
`Cc1cc(C)cc(-c2[nH]c3ccc(C(C)(C)C(=O)N4CCOCC4)cc3c2CCNCCCCc2ccc(NS(C)(=O)=O)cc2)c1`: the IC50 in test [3] came out at 0.12 nM; in test [2], 81 nM.
Turning to `Cc1cc(C)cc(-c2[nH]c3ccc(C(=O)N4CCOCC4)cc3c2CCNCCCCc2ccc(NS(C)(=O)=O)cc2)c1`, the IC50 in test [1] was found to be 2 nM; in test [3], 0.2 nM; in test [2], 400 nM.
The corresponding values for `Cc1cc(C)cc(-c2[nH]c3ccc(CC(=O)N(C)C)cc3c2CCNCCCCc2ccc(NS(C)(=O)=O)cc2)c1` are 2 nM, 0.1 nM and 320 nM.
In the case of `CCCCN(CC)C(=O)c1ccc2[nH]c(-c3cc(C)cc(C)c3)c(CCNCCCCc3ccc(NS(C)(=O)=O)cc3)c2c1`, the IC50 in test [1] came to 4 nM; in test [2], 240 nM.
Take `CCOC(=O)c1ccc2[nH]c(-c3cc(C)cc(C)c3)c(CCNCCCCc3ccc(NS(C)(=O)=O)cc3)c2c1`: the 50% inhibitory concentration (IC50) in test [1] is 14 nM; in test [2] it was > 6200 nM.
The corresponding values for `Cc1cc(C)cc(-c2[nH]c3ccc(C(=O)N(C)C)cc3c2CCNCCCCc2ccc(NS(C)(=O)=O)cc2)c1` are 2 nM and 690 nM.
In turn, `Cc1cc(C)cc(-c2[nH]c3ccc(OC(=O)N(C)C)cc3c2CCNCCCCc2ccc(O)cc2)c1` had an IC50 in test [1] of 3 nM.
`Cc1cc(C)cc(-c2[nH]c3ccc(C(C)(C)C(=O)N4CCCC4)cc3c2CCNCCCCc2ccc(NS(C)(=O)=O)cc2)c1`: the IC50 in test [1] is 2 nM; in test [3], 0.2 nM; in test [2], 40 nM.
For the compound `Cc1cc(C)cc(-c2[nH]c3ccc(C(=O)N4C(C)CCC4C)cc3c2CCNCCCCc2ccc(NS(C)(=O)=O)cc2)c1` (stereo not given), the IC50 was 3 nM in test [1], 0.2 nM in test [3] and 95 nM in test [2].
For `Cc1cc(C)cc(-c2[nH]c3ccc(C(=O)N(CC(C)C)CC(C)C)cc3c2CCNCCCCc2ccc(O)cc2)c1`, the IC50 in test [2] came to 380 nM.
Take `CCOC(=O)C(C)(C)c1ccc2[nH]c(-c3cc(C)cc(C)c3)c(CCNCCCCc3ccc(NS(C)(=O)=O)cc3)c2c1`: the results for the IC50 in test [1], in test [3] and in test [2] were 3 nM, 0.3 nM and 150 nM, respectively.
On to `Cc1cc(C)cc(-c2[nH]c3ccc(C(C)(C)C(=O)N4C(C)CCC4C)cc3c2CCNCCCCc2ccc(NS(C)(=O)=O)cc2)c1` (stereo not given), for which the IC50 in test [1] was determined as 3 nM; in test [3] it was 0.2 nM; in test [2], 65 nM.
For `Cc1cc(C)cc(-c2[nH]c3ccc(C(=O)N(C(C)C)C(C)C)cc3c2CCNCCCCc2ccc(NS(C)(=O)=O)cc2)c1`, in that order: 3 nM, 0.3 nM and 72 nM.
For the compound `CCOC(=O)c1ccc2[nH]c(-c3cc(C)cc(C)c3)c(CCNCCCCc3ccc(O)cc3)c2c1`, in test [1], the IC50 stood at 32 nM.
As to `Cc1cc(C)cc(-c2[nH]c3ccc(C(=O)N(CC(C)C)CC(C)C)cc3c2CCNCCCCc2ccc(NS(C)(=O)=O)cc2)c1`, the IC50 came out at 0.4 nM in test [3] and 32 nM in test [2].
For `CCCN(CCC)C(=O)C(C)(C)c1ccc2[nH]c(-c3cc(C)cc(C)c3)c(CCNCCCCc3ccc(NS(C)(=O)=O)cc3)c2c1`, the results for the IC50 in test [1], in test [3] and in test [2] were 5 nM, 0.4 nM and 70 nM, respectively.
For `Cc1cc(C)cc(-c2[nH]c3ccc(C(=O)N4CCCC4)cc3c2CCNCCCCc2ccc(NS(C)(=O)=O)cc2)c1`, in that order: 4 nM, 0.2 nM and 510 nM.
Turning to `CCN(C(=O)c1ccc2[nH]c(-c3cc(C)cc(C)c3)c(CCNCCCCc3ccc(NS(C)(=O)=O)cc3)c2c1)C(C)(C)C`, the IC50 is 0.8 nM in test [3] and 660 nM in test [2].
Regarding `CCNC(=O)c1ccc2[nH]c(-c3cc(C)cc(C)c3)c(CCNCCCCc3ccc(NS(C)(=O)=O)cc3)c2c1`, the results for the IC50 in test [1] and in test [2] were 6 nM and 2400 nM, respectively.
With `CCN(C(=O)c1ccc2[nH]c(-c3cc(C)cc(C)c3)c(CCNCCCCc3ccc(NS(C)(=O)=O)cc3)c2c1)C(C)C`, the IC50 in test [1] came to 3 nM; in test [2], 120 nM.
For `CCN(CC)C(=O)c1ccc2[nH]c(-c3cc(C)cc(C)c3)c(CCNCCCCc3ccc(NS(C)(=O)=O)cc3)c2c1`, the IC50 turned out to be 2 nM in test [1], 0.2 nM in test [3] and 270 nM in test [2].
For `Cc1cc(C)cc(-c2[nH]c3ccc(CC(=O)N4C(C)CCC4C)cc3c2CCNCCCCc2ccc(NS(C)(=O)=O)cc2)c1` (stereo not given), in that order: 3 nM, 0.1 nM and 95 nM.
The corresponding values for `Cc1cc(C)cc(-c2[nH]c3ccc(C(=O)N4C5CCC4CC5)cc3c2CCNCCCCc2ccc(NS(C)(=O)=O)cc2)c1` are 3 nM, 0.4 nM and 210 nM.
Turning to `Cc1cc(C)cc(-c2[nH]c3ccccc3c2CCNCCCCc2ccc(O)cc2)c1`, in test [2], the 50% inhibitory concentration (IC50) was > 6200 nM.
For the compound `CCN(CC)C(=O)C(C)(C)c1ccc2[nH]c(-c3cc(C)cc(C)c3)c(CCNCCCCc3ccc(NS(C)(=O)=O)cc3)c2c1`, the IC50 in test [1] was 2 nM; in test [3], 0.2 nM; in test [2] it was 42 nM.
For the compound `CCOC(=O)Cc1ccc2[nH]c(-c3cc(C)cc(C)c3)c(CCNCCCCc3ccc(NS(C)(=O)=O)cc3)c2c1`, the IC50 was determined as 2 nM in test [1] and 2000 nM in test [2].
For `CCCN(CCC)C(=O)c1ccc2[nH]c(-c3cc(C)cc(C)c3)c(CCNCCCCc3ccc(NS(C)(=O)=O)cc3)c2c1`, in that order: 5 nM and 140 nM.
Regarding `CCOC(=O)C(C)c1ccc2[nH]c(-c3cc(C)cc(C)c3)c(CCNCCCCc3ccc(NS(C)(=O)=O)cc3)c2c1` (stereo not given), the IC50 in test [1] came out at 4 nM; in test [3] it was 0.5 nM; in test [2], 610 nM.
The corresponding values for `Cc1cc(C)cc(-c2[nH]c3ccc(C(C)(C)C(=O)N(C)C)cc3c2CCNCCCCc2ccc(NS(C)(=O)=O)cc2)c1` are 3 nM, 0.1 nM and 160 nM.
For `CCN(CC)C(=O)C(C)c1ccc2[nH]c(-c3cc(C)cc(C)c3)c(CCNCCCCc3ccc(NS(C)(=O)=O)cc3)c2c1` (stereo not given), the IC50 in test [1] worked out at 2 nM; in test [3], 0.2 nM; in test [2], 130 nM.
Take `CCN(CC)C(=O)c1ccc2[nH]c(-c3cc(C)cc(C)c3)c(CCNCCCCc3ccc(O)cc3)c2c1`: the IC50 in test [1] is 6 nM; in test [3], 0.5 nM; in test [2], 540 nM.
